Assay results reported in patent publication US20210189327A1, “3D […] CONSTRUCTS AND METHODS OF MAKING THEREOF” (McMaster University, priority 2019, published 2021).

Test system: MCF-7 cells
Assay: Effect of actin cytoskeleton impairment on spheroid formation and consolidation
Format: cell-based
Settings: 100 nM; 1 hr pretreatment without (T-nT) or with (T-T) the same concentration during spheroid formation; 5×10^5 MCF-7 cells in large wells; P-value>0.05
Method: Rapid Formation of Spheroidal Tissue Constructs. In order to form spheroidal tissue constructs, PDMS molds in the form of circular wells with spherical bottom were used. These molds were prepared by mixing PDMS and its curing agent with the ratio of 10:1 and casting it on the Poly lactic acid (PLA) master mold with negative of the required patterns. Master molds were designed using software Solidworks© and 3D printed using a Stereolithography (SLA) based 3D printer (Objet 24 Desktop 3D printer). A large and small well size were created with diameters of 4 and 2.5 mm respectively. MCF-7 (Michigan Cancer Foundation-7, a breast cancer cell line) cells were cultured in Dulbecco's Modified Eagle Medium (DMEM) (Thermofisher, high glucose) supplemented with 10% V/V fetal bovine serum (FBS) (Thermofisher, US origin) and 1% Penicillin-Streptomycin (Thermofisher, 10000 U/mL) until 70% confluent. Cells were trypsinized and detached from tissue culture flasks. Required number of cells (10^5 or 10^6) were aliquoted, precipitated using centrifugation, and resuspended in proper amount of medium (5 μL for small wells, 15 μL for large wells). The cell solution then was added to the equal amount of bovine collagen type I (Thermofisher, 5 mg/mL) and mixed to get a uniform distribution of cells. […]

## C/C1=C/C(=O)O[C@@H]2C[C@@H](CC[C@H](C)/C=C\C=C\CC1)O[C@@](O)([C@@H]1CSC(=O)N1)C2 [latrunculin A, Latrunculin A]
  difference between spheroid radii after 6 hrs versus untreated control (nT-nT): no meaningful difference
